Holding throughout (test): ≥ marks a high value that may be exact or a test limit, other limits are often not marked, values filed in µg/mL are converted to µM
In test [1] the test system is Staphylococcus aureus ATCC 49476.
Test [2] relates to Candida albicans.
For test [3], the system named is Pseudomonas aeruginosa ATCC 27853.
Test [4] deals with Staphylococcus aureus MR.
Test [5] deals with Leuconostoc lactis.
The subject of test [6] is Micrococcus luteus.
In test [7] the test system is Streptococcus uberis.
Test [8] has as its system Pasteurella multocida.
Test [9] has as its system Escherichia coli.
The test system of test [10] is Staphylococcus epidermidis.
For test [11], the system named is Listeria innocua.
The subject of test [12] is Bacillus cereus.
The test system of test [13] is Staphylococcus aureus.
For test [14], the system named is Fusarium oxysporum KCTC 16909.
The subject of test [15] is Candida krusei CCARM 14017.
Test [16] has as its system Trichosporon beigelii KCTC 7707.
For test [17], the system named is Candida parapsilosis CCARM 14016.
The test system of test [18] is Fusarium verticillioides KCTC 6149.
The test system of test [19] is Candida tropicalis KCTC 7221.
The subject of test [20] is Enterococcus faecium E007.
Test [21] deals with Staphylococcus aureus MW2.
For test [22], the system named is Staphylococcus aureus ATCC 29231.
The subject of test [23] is Acinetobacter baumannii ATCC 7978.
Test [24] concerns Enterococcus faecalis CVCC 3936.
Test [25] deals with Staphylococcus aureus ATCC 43300.
In test [26] the test system is Listeria ivanovii ATCC 19119.
For test [27], the system named is Salmonella enterica subsp. enterica serovar Pullorum CVCC 533.
In test [28] the test system is Salmonella enterica subsp. enterica serovar Pullorum CVCC 1809.
Test [29] concerns Escherichia coli CVCC 195.
The subject of test [30] is Candida albicans CGMCC 2.2411.
Test [31] deals with Streptococcus suis CVCC 606.
For test [32], the system named is Salmonella enterica subsp. enterica serovar Typhimurium ATCC 14028.
Test [33] deals with Escherichia coli CVCC 1515.
Test [34] has as its system Pseudomonas aeruginosa CICC 10419.
Test [35] deals with Bacillus subtilis ATCC 6633.

A word on the MIC: it is the lowest concentration found to suppress growth. Lower therefore signals greater potency.

Values after ≈ are worked out from the molar mass of the structure shown. Values joined by “and” are separate entries in the source; they are usually repeats but may differ in a detail not shown here. Equal entries are not always repeated.

Turning to `CC[C@H](C)[C@H](NC(=O)[C@H](C)NC(=O)[C@H](CCCCN)NC(=O)CNC(=O)[C@H](C)NC(=O)[C@H](CO)NC(=O)[C@H](Cc1ccccc1)NC(=O)[C@H](CC(C)C)NC(=O)CNC(=O)CNC(=O)[C@@H](NC(=O)[C@@H](NC(=O)[C@H](Cc1cnc[nH]1)NC(=O)[C@H](Cc1cnc[nH]1)NC(=O)[C@H](C)NC(=O)[C@H](C)N)[C@@H](C)CC)[C@@H](C)CC)C(=O)N[C@@H](Cc1cnc[nH]1)C(=O)N[C@@H](CCCN=C(N)N)C(=O)N[C@@H](CC(C)C)C(=O)N[C@H](C(=O)N[C@@H](CCCN=C(N)N)C(=O)N[C@@H](CCCN=C(N)N)C(=O)N[C@@H](CCCN=C(N)N)C(=O)N[C@@H](CCCN=C(N)N)C(=O)N[C@@H](CCCN=C(N)N)C(=O)O)[C@@H](C)CC` [AAHHIIGGLFSAGKAIHRLIRRRRR], the minimum inhibitory concentration (MIC) is no less than 44.7 µM in [1], 22.4 µM (≈ 64 µg/mL) in test [2], 89.4 µM (≈ 256 µg/mL) in [3] and no less than 179 µM in test [4].
On to `CC[C@H](C)[C@H](NC(=O)[C@H](CO)NC(=O)[C@H](CO)NC(=O)[C@H](CCSC)NC(=O)[C@H](CC(C)C)NC(=O)CN)C(=O)NCC(=O)N[C@@H](CCCCN)C(=O)N[C@@H](C)C(=O)N[C@@H](CC(C)C)C(=O)NCC(=O)NCC(=O)N[C@@H](CC(C)C)C(=O)N[C@H](C(=O)N[C@H](C(=O)N[C@@H](CC(=O)O)C(=O)N[C@H](C(=O)N[C@@H](CC(C)C)C(=O)N[C@@H](CCCCN)C(=O)N1CCC[C@H]1C(=O)N[C@@H](CCCCN)C(=O)N[C@H](C(=O)N1CCC[C@H]1C(=O)N[C@@H](C)C(=O)N[C@@H](CO)C(=O)O)[C@@H](C)O)C(C)C)C(C)C)[C@@H](C)CC` [GLMSSIGKALGGLIVDVLKPKTPAS], for which the MIC in test [5] is no less than 40.8 µM; in test [6], no less than 40.8 µM; in test [7], 20.4 µM (≈ 50 µg/mL); in test [8], no less than 40.8 µM; in test [9] it was greater than 40.8 µM; in test [10], no less than 40.8 µM. Further, the figures for the MIC in test [11], in test [12] and in test [13] were no less than 40.8 µM, no less than 40.8 µM and greater than 40.8 µM, respectively.
In the case of `CC[C@H](C)[C@H](NC(=O)[C@H](C)NC(=O)[C@H](CCC(=O)O)NC(=O)[C@H](Cc1cnc[nH]1)NC(=O)[C@H](C)NC(=O)CNC(=O)[C@H](CCC(N)=O)NC(=O)[C@H](Cc1ccccc1)NC(=O)[C@@H](NC(=O)[C@H](CCCCN)NC(=O)[C@H](CCCCN)NC(=O)[C@H](C)NC(=O)[C@H](C)NC(=O)[C@H](CC(N)=O)NC(=O)[C@H](CC(C)C)NC(=O)CN)C(C)C)C(=O)N[C@@H](CCCCN)C(=O)N[C@@H](CC(C)C)C(=O)N[C@H](C(=O)N[C@@H](CC(N)=O)C(=O)N[C@@H](CC(N)=O)C(=O)N[C@@H](Cc1cnc[nH]1)C(=O)N[C@H](C(=O)N[C@@H](CCC(N)=O)C(N)=O)C(C)C)[C@@H](C)CC` [GLNAAKKVFQGAHEAIKLINNHVQ], the MIC in [14] is 4 µM and 12 µM; in [15], 8 µM (≈ 20.8 µg/mL); in test [16] it was 2 µM (≈ 5.2 µg/mL); in [17] it was no less than 64 µM; in [18], no less than 48 µM; in test [19] it was 4 µM and 2 µM.
In the case of `CC[C@H](C)[C@H](NC(=O)[C@H](CCCCN)NC(=O)[C@H](CCCCN)NC(=O)[C@@H](N)CC(C)C)C(=O)NCC(=O)N[C@@H](CCCCN)C(=O)N[C@@H](CCCCN)C(=O)N[C@H](C(=O)N[C@@H](Cc1c[nH]c2ccccc12)C(=O)N[C@@H](CCCN=C(N)N)C(=O)N[C@H](C(=O)NCC(=O)N[C@@H](Cc1c[nH]c2ccccc12)C(=O)N[C@@H](CC(N)=O)C(=O)N[C@H](C(=O)N[C@@H](CCCN=C(N)N)C(=O)O)[C@@H](C)O)C(C)C)[C@@H](C)CC` [LKKIGKKIWRVGWNTR], the MIC in [20], in test [21], in test [22] and in test [23] was no less than 64.5 µM throughout.
For the compound `CC(C)[C@H](N)C(=O)N[C@H]1CSSC[C@@H](C(=O)N[C@@H](Cc2cnc[nH]2)C(=O)N[C@@H](CCCN=C(N)N)C(=O)N[C@@H](CCCN=C(N)N)C(=O)N[C@@H](C)C(=O)N[C@@H](CC(N)=O)C(=O)N[C@@H](CC(N)=O)C(=O)NCC(=O)N[C@H](C(=O)N[C@@H](CCCN=C(N)N)C(=O)N[C@H](C(=O)O)C(C)C)C(C)C)NC(=O)[C@H](CC(N)=O)NC(=O)[C@H](Cc2c[nH]c3ccccc23)NC(=O)[C@H](C)NC(=O)[C@H](Cc2ccccc2)NC(=O)CNC(=O)[C@H](CCCN=C(N)N)NC(=O)[C@H](Cc2ccc(O)cc2)NC(=O)[C@H](C(C)C)NC1=O` [VCVYRGFAWNCHRRANNGVRV], the MIC in test [24] was 25.8 µM (≈ 63.9 µg/mL); in [25], greater than 25.8 µM; in [26] it was 25.8 µM (≈ 63.9 µg/mL); in test [27], 25.8 µM (≈ 63.9 µg/mL); in [28], 25.8 µM (≈ 63.9 µg/mL); in [29], 25.8 µM (≈ 63.9 µg/mL). Also, the MIC in test [30] is 25.8 µM (≈ 63.9 µg/mL); in [31], 25.8 µM (≈ 63.9 µg/mL); in test [32] it was greater than 25.8 µM; in test [33], 25.8 µM (≈ 63.9 µg/mL); in [34], 25.8 µM (≈ 63.9 µg/mL); in test [35] it was 25.8 µM (≈ 63.9 µg/mL).

These data come from DBAASP.
